Experimental data reported in the supplement of paper PMC10307832.

How the values were obtained:
Assay in all cases: relative viability (nuclei count vs DMSO), 5 days (fraction); higher = more cells survive
[1] = test system: LXF-289
Summary of the method: (§1)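 Five library-drug doses in √10 steps were combined with a fixed anchor-drug dose, or a single drug was given alone, by pin tool to lung cancer cell lines in 1536-well plates the day after seeding. Nuclei were stained and counted after 5 days. Relative viability is the nuclei count in treated wells over that in vehicle wells, taken as the median of duplicate plates.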

[2] = test system: NCI-H647
Summary of the method: as §1

[3] = test system: NCI-H3122
Summary of the method: as §1

[4] = test system: NCI-H1395
Summary of the method: as §1

[5] = test system: NCI-H727
Summary of the method: as §1

[6] = test system: 201T
Summary of the method: as §1

[7] = test system: NCI-H1437
Summary of the method: as §1

[8] = test system: NCI-H1944
Summary of the method: as §1

[9] = test system: HCC-827
Summary of the method: as §1

[10] = test system: NCI-H1792
Summary of the method: as §1

[11] = test system: NCI-H2405
Summary of the method: as §1

[12] = test system: NCI-H322M
Summary of the method: as §1

[13] = test system: CAL-12T
Summary of the method: as §1

[14] = test system: RERF-LC-KJ
Summary of the method: as §1

[15] = test system: NCI-H1793
Summary of the method: as §1

[16] = test system: LCLC-97TM1
Summary of the method: as §1

[17] = test system: BEN
Summary of the method: as §1

[18] = test system: LCLC-103H
Summary of the method: as §1

[19] = test system: NCI-H2087
Summary of the method: as §1

COc1cc2nccc(Oc3ccc(NC(=O)Nc4cc(C)on4)c(Cl)c3)c2cc1OC [Tivozanib] + NC(=O)Nc1cc(-c2cccc(F)c2)sc1C(=O)N[C@H]1CCCNC1 [AZD7762] (partner 0.2 µM)
relative viability ([1]; first compound 0.005 µM): 1.05
relative viability ([1]; first compound 0.01581 µM): 1.03
relative viability ([1]; first compound 0.05 µM): 1.09
relative viability ([1]; first compound 0.1581 µM): 1.21
relative viability ([1]; first compound 0.5 µM): 1.06
relative viability ([2]; first compound 0.005 µM): 0.367
relative viability ([2]; first compound 0.01581 µM): 0.42
relative viability ([2]; first compound 0.05 µM): 0.789
relative viability ([2]; first compound 0.1581 µM): 0.377
relative viability ([2]; first compound 0.5 µM): 0.369
relative viability ([3]; first compound 0.005 µM): 0.97
relative viability ([3]; first compound 0.01581 µM): 0.876
relative viability ([3]; first compound 0.05 µM): 0.974
relative viability ([3]; first compound 0.1581 µM): 1.02
relative viability ([3]; first compound 0.5 µM): 1.02
relative viability ([4]; first compound 0.005 µM): 0.359
relative viability ([4]; first compound 0.01581 µM): 0.389
relative viability ([4]; first compound 0.05 µM): 0.402
relative viability ([4]; first compound 0.1581 µM): 0.386
relative viability ([4]; first compound 0.5 µM): 0.35
relative viability ([5]; first compound 0.005 µM): 0.548
relative viability ([5]; first compound 0.01581 µM): 0.657
relative viability ([5]; first compound 0.05 µM): 0.408
relative viability ([5]; first compound 0.1581 µM): 0.442
relative viability ([5]; first compound 0.5 µM): 0.697
relative viability ([6]; first compound 0.005 µM): 0.599
relative viability ([6]; first compound 0.01581 µM): 0.575
relative viability ([6]; first compound 0.05 µM): 0.659
relative viability ([6]; first compound 0.1581 µM): 0.595
relative viability ([6]; first compound 0.5 µM): 0.601
relative viability ([7]; first compound 0.005 µM): 1.12
relative viability ([7]; first compound 0.01581 µM): 1.16
relative viability ([7]; first compound 0.05 µM): 1.07
relative viability ([7]; first compound 0.1581 µM): 1.17
relative viability ([7]; first compound 0.5 µM): 1.04
relative viability ([8]; first compound 0.005 µM): 0.392
relative viability ([8]; first compound 0.01581 µM): 0.552
relative viability ([8]; first compound 0.05 µM): 0.378
relative viability ([8]; first compound 0.1581 µM): 0.452
relative viability ([8]; first compound 0.5 µM): 0.487
relative viability ([9]; first compound 0.005 µM): 0.202
relative viability ([9]; first compound 0.01581 µM): 0.25
relative viability ([9]; first compound 0.05 µM): 0.314
relative viability ([9]; first compound 0.1581 µM): 0.185
relative viability ([9]; first compound 0.5 µM): 0.194
relative viability ([10]; first compound 0.005 µM): 0.641
relative viability ([10]; first compound 0.01581 µM): 0.646
relative viability ([10]; first compound 0.05 µM): 0.509
relative viability ([10]; first compound 0.5 µM): 0.53
relative viability ([11]; first compound 0.005 µM): 0.759
relative viability ([11]; first compound 0.01581 µM): 0.893
relative viability ([11]; first compound 0.05 µM): 0.735
relative viability ([11]; first compound 0.1581 µM): 0.905
relative viability ([11]; first compound 0.5 µM): 0.518
relative viability ([12]; first compound 0.005 µM): 0.562
relative viability ([12]; first compound 0.01581 µM): 0.767
relative viability ([12]; first compound 0.05 µM): 0.628
relative viability ([12]; first compound 0.1581 µM): 0.443
relative viability ([12]; first compound 0.5 µM): 0.586
relative viability ([13]; first compound 0.005 µM): 0.483
relative viability ([13]; first compound 0.01581 µM): 0.584
relative viability ([13]; first compound 0.05 µM): 0.668
relative viability ([13]; first compound 0.1581 µM): 0.722
relative viability ([13]; first compound 0.5 µM): 0.71
relative viability ([14]; first compound 0.005 µM): 0.701
relative viability ([14]; first compound 0.01581 µM): 0.925
relative viability ([14]; first compound 0.05 µM): 1.07
relative viability ([14]; first compound 0.1581 µM): 0.659
relative viability ([14]; first compound 0.5 µM): 0.892
relative viability ([15]; first compound 0.005 µM): 0.448
relative viability ([15]; first compound 0.01581 µM): 0.391
relative viability ([15]; first compound 0.05 µM): 0.419
relative viability ([15]; first compound 0.5 µM): 0.328
relative viability ([16]; first compound 0.005 µM): 0.128
relative viability ([16]; first compound 0.01581 µM): 0.274
relative viability ([16]; first compound 0.05 µM): 0.343
relative viability ([16]; first compound 0.1581 µM): 0.208
relative viability ([16]; first compound 0.5 µM): 0.262
relative viability ([17]; first compound 0.005 µM): 0.6
relative viability ([17]; first compound 0.01581 µM): 0.712
relative viability ([17]; first compound 0.05 µM): 0.869
relative viability ([17]; first compound 0.1581 µM): 0.375
relative viability ([17]; first compound 0.5 µM): 0.737
relative viability ([18]; first compound 0.005 µM): 0.758
relative viability ([18]; first compound 0.01581 µM): 0.829
relative viability ([18]; first compound 0.05 µM): 0.812
relative viability ([18]; first compound 0.1581 µM): 0.689
relative viability ([18]; first compound 0.5 µM): 0.802
relative viability ([19]; first compound 0.005 µM): 1.3
relative viability ([19]; first compound 0.01581 µM): 1.3
relative viability ([19]; first compound 0.05 µM): 1.28
relative viability ([19]; first compound 0.1581 µM): 1.55
relative viability ([19]; first compound 0.5 µM): 1.22
